Source: PubChem BioAssay AID330 (DTP/NCI, 2004)
Toxic doses and inconclusive results are not listed.

System: P388 leukemia ip, CD2F1 mice, survival T/C
Test: NCI In Vivo Anticancer Drug Screen. Data for tumor model P388 Leukemia (intraperitoneal) in CD2F1 (CDF1) mice
Conditions: endpoint: median survival time, higher = longer survival
Summary of the method: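 Mice carrying the transplanted tumor received test compound or vehicle. Survival was recorded in each group, and the value is the treated-group measurement divided by that of the vehicle-treated control group.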

[1] = dose: 50.0 mg/kg/injection, schedule: Q01DX009 (ip), vehicle: suspension in saline
[2] = dose: 100.0 mg/kg/injection, schedule: Q01DX009 (ip), vehicle: suspension in saline
[3] = dose: 200.0 mg/kg/injection, schedule: Q01DX009 (ip), vehicle: suspension in saline
[4] = dose: 50.0 mg/kg/injection, schedule: Q01DX009 (ip), vehicle: distilled water + alcohol
[5] = dose: 100.0 mg/kg/injection, schedule: Q01DX009 (ip), vehicle: distilled water + alcohol
[6] = dose: 200.0 mg/kg/injection, schedule: Q01DX009 (ip), vehicle: distilled water + alcohol
[7] = dose: 50.0 mg/kg/injection, schedule: Q01DX005 (ip), vehicle: saline with Tween-80
[8] = dose: 100.0 mg/kg/injection, schedule: Q01DX005 (ip), vehicle: saline with Tween-80
[9] = dose: 200.0 mg/kg/injection, schedule: Q01DX005 (ip), vehicle: saline with Tween-80

Cn1c(/C=[N+](/C)[O-])cnc1[N+](=O)[O-]
T/C [1]: 102 % of control
T/C [2]: 103 % of control
T/C [3]: 108 % of control

O=c1cccc2n1C[C@H]1C[C@@H]2CN2CCCC[C@H]12
T/C (dose: 6.25 mg/kg/injection, schedule: Q01DX005 (ip), vehicle: saline): 99 % of control
T/C (dose: 12.5 mg/kg/injection, schedule: Q01DX005 (ip), vehicle: saline): 99 % of control

OC1=CC(=S)NC(c2ccccc2)C1 (stereo not given)
T/C (dose: 50.0 mg/kg/injection, schedule: Q01DX005 (ip), vehicle: Klucel (hydroxypropylcellulose) (HPC)): 99 % of control
T/C (dose: 100.0 mg/kg/injection, schedule: Q01DX005 (ip), vehicle: Klucel (hydroxypropylcellulose) (HPC)): 106 % of control
T/C (dose: 200.0 mg/kg/injection, schedule: Q01DX005 (ip), vehicle: Klucel (hydroxypropylcellulose) (HPC)): 108 % of control

CCC1(c2ccnc3cc(Cl)ccc23)C(=O)NC(=O)NC1=O
T/C [4]: 100 % of control
T/C [5]: 98 % of control
T/C [6]: 99 % of control

Nc1cccc(CCCCc2ccc(Cl)c(S(=O)(=O)F)c2)c1
T/C (dose: 50.0 mg/kg/injection, schedule: Q01DX009 (ip), vehicle: saline sonified): 86 % of control
T/C (dose: 100.0 mg/kg/injection, schedule: Q01DX009 (ip), vehicle: saline sonified): 86 % of control
T/C (dose: 200.0 mg/kg/injection, schedule: Q01DX009 (ip), vehicle: saline sonified): 95 % of control

OCC1OC(O)C(N=C/C=C/c2ccccc2)C(O)C1O (stereo not given)
T/C [7]: 104 % of control
T/C [8]: 117 % of control
T/C [9]: 115 % of control

CCCCCCCCCCCCCCCCCSc1c(O)c(O)c2cccnc2c1O (tested in a mixture with another compound)
T/C (dose: 60.0 mg/kg/injection, schedule: Q01DX005 (ip), vehicle: Klucel (hydroxypropylcellulose) (HPC)): 104 % of control
T/C (dose: 120.0 mg/kg/injection, schedule: Q01DX005 (ip), vehicle: Klucel (hydroxypropylcellulose) (HPC)): 105 % of control

CN1CC2OC2(c2ccccc2)C(c2ccccc2)C1 (stereo not given)
T/C [7]: 102 % of control
T/C [8]: 102 % of control

CCN(CC)Cc1cc(Nc2nc(/C=C/c3ccccc3)nc3ccccc23)ccc1O
T/C [4]: 97 % of control
T/C [5]: 100 % of control
T/C [6]: 98 % of control

NCCNCC[OH2+].NCCNCC[OH2+].O=[N+]([O-])[O-].[Cu+2]
T/C (dose: 3.12 mg/kg/injection, schedule: Q01DX009 (ip), vehicle: Klucel (hydroxypropylcellulose) (HPC)): 98 % of control
T/C (dose: 6.25 mg/kg/injection, schedule: Q01DX009 (ip), vehicle: Klucel (hydroxypropylcellulose) (HPC)): 111 % of control
T/C (dose: 6.25 mg/kg/injection, schedule: Q04DX003 (ip), vehicle: saline): 97 % of control
T/C (dose: 12.5 mg/kg/injection, schedule: Q01DX009 (ip), vehicle: Klucel (hydroxypropylcellulose) (HPC)): 93 % of control
T/C (dose: 12.5 mg/kg/injection, schedule: Q04DX003 (ip), vehicle: saline): 100 % of control
T/C (dose: 25.0 mg/kg/injection, schedule: Q04DX003 (ip), vehicle: saline): 86 % of control

CC(C)(C)c1cc(C(C)(C)C)c(O)c(Br)c1O
T/C (dose: 50.0 mg/kg/injection, schedule: Q01DX009 (ip), vehicle: Klucel (hydroxypropylcellulose) (HPC)): 101 % of control
T/C (dose: 100.0 mg/kg/injection, schedule: Q01DX009 (ip), vehicle: Klucel (hydroxypropylcellulose) (HPC)): 102 % of control
T/C (dose: 200.0 mg/kg/injection, schedule: Q01DX009 (ip), vehicle: Klucel (hydroxypropylcellulose) (HPC)): 101 % of control

CC(CC(C)C1CO1)C(=O)C(C)S(=O)(=O)c1ccccc1 (stereo not given) (tested in a mixture with another compound)
T/C [7]: 104 % of control
T/C [8]: 88 % of control
T/C [9]: 102 % of control

CN(C)CCN1C(=O)c2cccc3cc(N)cc(c23)C1=O
T/C (dose: 2.0 mg/kg/injection, schedule: Q01DX009 (ip), vehicle: saline with Tween-80): 111 % of control
T/C (dose: 8.0 mg/kg/injection, schedule: Q01DX009 (ip), vehicle: saline with Tween-80): 176 % of control

CCOC(=O)Nc1ccc2c(c1[N+](=O)[O-])c1cc([N+](=O)[O-])cc([N+](=O)[O-])c1n2CC
T/C [7]: 98 % of control
T/C [8]: 90 % of control
T/C [9]: 86 % of control

Cc1ccccc1C(C)(C#N)Nc1ccccc1 (stereo not given)
T/C (dose: 100.0 mg/kg/injection, schedule: Q01DX009 (ip), vehicle: saline with Tween-80): 100 % of control
T/C (dose: 200.0 mg/kg/injection, schedule: Q01DX009 (ip), vehicle: saline with Tween-80): 113 % of control
T/C (dose: 400.0 mg/kg/injection, schedule: Q01DX009 (ip), vehicle: saline with Tween-80): 100 % of control

O=S1(=O)N=C(Sc2nc3ccccc3o2)c2ccccc21
T/C (dose: 100.0 mg/kg/injection, schedule: Q04DX002 (ip), vehicle: saline with Tween-80): 102 % of control
T/C (dose: 200.0 mg/kg/injection, schedule: Q04DX002 (ip), vehicle: saline with Tween-80): 107 % of control
T/C (dose: 400.0 mg/kg/injection, schedule: Q04DX002 (ip), vehicle: saline with Tween-80): 115 % of control

CC1(C)NC(=O)c2c(-c3ccccc3)c(-c3ccccc3)n(-c3ccccc3)c2N1
T/C [1]: 96 % of control
T/C [2]: 98 % of control
T/C [3]: 101 % of control
